Source: US5523314A, “Compounds useful as hypoglycemic agents and for treating Alzheimer's disease” (priority 1994, dated 1996)
Like-named read-outs stand apart in the source and are kept apart here.

Columns and labels:
blood glucose level [1] = experiment: Hypoglycemic activity in obese diabetic mice (Table 1); format: in vivo, male viable yellow obese-diabetic mice; conditions: for response vs control in vivo at 25 mg/kg / response vs control in vivo at 50 mg/kg / response vs control in vivo at 10 mg/kg: Mus musculus, ip, intraperitoneal; for ability to lower blood glucose levels in mammals: compared to structurally similar compounds known in the art, in words
Procedure, shortened: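 Male viable yellow obese-diabetic mice, six per group, dosed intraperitoneally once with compound in saline containing 2% Emulphor. Blood glucose measured by glucose oxidase before dosing and at 2 and 4 h. Values are the 2 h and 4 h glucose as % of pre-dose level.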

blood glucose level [2] = experiment: Hypoglycemic activity in normal fed rats (Table 2); format: in vivo, male Sprague Dawley rats; conditions: Rattus norvegicus, oral
Procedure: The procedure used in this test system is described below.
(§1) The desired dose level of each test formulation was administered to four rats by oral […] at the beginning of the experiment. Blood glucose levels were determined immediately before the first dose and at 3 and 5 hours thereafter by an enzymatic procedure employing glucose oxidase and peroxidase coupled with a chromogenic oxygen acceptor. A mean was taken of the 4 values obtained before the first dose and at the 3 and 5 hour intervals.

[3] = tested on: plasma glucose concentration; experiment: Long-term hypoglycemic activity, compound in diet, A^vy /a mice (Table 4); format: in vivo, viable yellow mouse; conditions: 0.1% in diet, Male A^vy /a (Harlan)
Procedure: (§2) Finally, the long-term hypoglycemic activity of the compounds of the present invention was tested in yet another in vivo test system. This long-term test system entailed incorporating test compound into the test animal's diet at various concentrations (control animal's diet contained no test compound). Such diet was then fed to the test or control animals for either 14 or 21 days. Each test or control animal was then bled from the tail (200-400 μl sample of blood) at 0 (before diet started), 7, 14 and, if appropriate, 21 and 28 days after diet administration was started. Plasma samples were then obtained from each blood sample collected and the glucose concentration of such plasma samples was determined enzymatically.
(§3) Columns 4-8 provide the plasma glucose concentration at days 0, 7, 14 and, if appropriate, 21 and 28, respectively, for the animals tested. Glucose lowering was not associated with depressed diet consumption.

[4] = tested on: plasma glucose concentration; experiment: Long-term hypoglycemic activity, compound in diet, ZDF rats (Table 4); format: in vivo, 8 week old male Zucker Diabetic Fatty rat
Procedure: as §2, §3

blood glucose level [5] = experiment: Hypoglycemic activity in obese diabetic Zucker rats (Table 3); format: in vivo, obese diabetic Zucker rat (Zucker Diabetic Fatty Rat); conditions: oral
Procedure: as §1, with “Male Sprague Dawley rats (Charles River Laboratories) weighing 175-200 g were used in this test system. […] The” for “The”
The procedure used in this test system is the same as that described for the normal fed rat test system, above. The format of Table 3 is the same as that used in Table 2.

Human liver cathepsin D = molecular target: T1, Human liver cathepsin D (Homo sapiens, UniProt P07339); experiment: Cathepsin D inhibition, fluorometric assay (Tables 5 and 6); format: biochemical; conditions: for inhibition at 4.15 µg/mL (stock): Compound Stock Concentration 4.15 μg/ml
T1 construct: purchased Athens Research and Technology, Athens, Ga; host or cells: human liver
T1 sequence (P07339 169-412 limits assumed): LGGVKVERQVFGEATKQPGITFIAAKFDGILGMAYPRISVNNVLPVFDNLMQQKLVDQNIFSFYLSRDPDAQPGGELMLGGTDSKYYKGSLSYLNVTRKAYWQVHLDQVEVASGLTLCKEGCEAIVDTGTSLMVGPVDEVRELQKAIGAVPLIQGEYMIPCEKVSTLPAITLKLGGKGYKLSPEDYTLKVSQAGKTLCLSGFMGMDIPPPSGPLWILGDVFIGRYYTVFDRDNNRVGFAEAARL
T1 sequence (P07339 65-161 limits assumed): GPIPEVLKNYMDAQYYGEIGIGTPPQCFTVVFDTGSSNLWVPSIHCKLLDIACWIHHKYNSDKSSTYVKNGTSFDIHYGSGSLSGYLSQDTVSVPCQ
Procedure, shortened: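 Human liver cathepsin D at 500 ng/mL in 200 mM NaOAc pH 4.5, 150 mM NaCl, incubated 30 minutes at 37° C. Reaction stopped with microsomal leucine aminopeptidase (pH 8.0), which over two hours at 37° C releases AMC from cleavage products for fluorometric reading; aminopeptidase inhibition checked with Leu-pNA.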

[6] = 2 h, 2 hrs, read-out: Percent of Initial Blood Glucose Level After 2 hrs.
[7] = 4 h, 4 hrs, read-out: Percent of Initial Blood Glucose Level After 4 hrs.
[8] = 3 hrs, read-out: Percent of Initial Blood Glucose Level After 3 hrs.
[9] = 5 hrs, read-out: Percent of Initial Blood Glucose Level After 5 hrs.

For CCCCCOc1ccc(C=C2SC(=S)NC2=O)cc1OC [Example 45, 5-[(3-methoxy-4-pentoxyphenyl)methylene]-2-thioxo-4-thiazolidinone], the response vs control in vivo at 25 mg/kg (blood glucose level [1]; [6]) was 93 ± 4%, the response vs control in vivo at 50 mg/kg (blood glucose level [1]; [6]) was 76 ± 7% and the response vs control in vivo at 25 mg/kg (blood glucose level [1]; [7]) was 87 ± 5%. The response vs control in vivo at 50 mg/kg (blood glucose level [1]; [7]) was 57 ± 3%, the “ability to lower blood glucose levels in mammals” value (blood glucose level [1]) was “surprising ability to lower blood glucose levels in mammals” and the response vs control in vivo at 167 mg/kg (blood glucose level [2]; [8]) was 61%. For the same molecule, the response vs control in vivo at 167 mg/kg (blood glucose level [2]; [9]) was 63%, the “Plasma Glucose Concentration” value ([3]; day 0 (before diet started)) was 438 mg/dL and the “Plasma Glucose Concentration” value ([3]; day 7) was 338 mg/dL. The “Plasma Glucose Concentration” value ([3]; day 14) was 315 mg/dL, the “Plasma Glucose Concentration” value ([3]; day 21) was 287 mg/dL and the “Plasma Glucose Concentration” value ([3]; day 28) was 295 mg/dL. The “Plasma Glucose Concentration” value ([4]; 0.025% in diet, day 0 (before diet started)) was 467 mg/dL, the “Plasma Glucose Concentration” value ([4]; 0.025% in diet, day 7) was 451 mg/dL and the “Plasma Glucose Concentration” value ([4]; 0.025% in diet, day 14) was 452 mg/dL. For the same molecule, the “Plasma Glucose Concentration” value ([4]; 0.025% in diet, day 21) was 517 mg/dL, the “Plasma Glucose Concentration” value ([4]; 0.1% in diet, day 21) was 285 mg/dL and the “Percent of Initial Blood Glucose Level After 3 hrs.” value (blood glucose level [5]; 167 mg/kg) was 30%. The “Percent of Initial Blood Glucose Level After 5 hrs.” value (blood glucose level [5]; 167 mg/kg) was 20%, the inhibition at 4.15 µg/mL (stock) (Human liver cathepsin D) was 49.5% and the inhibition at 8.3 µg/mL (stock) (Human liver cathepsin D; Compound Stock Concentration 8.3 μg/ml) was 95%.
CCCCOc1ccc(C=C2SC(=S)NC2=O)cc1OCC [Example 56, 5-[(3-ethoxy-4-butoxyphenyl)methylene]-2-thioxo-4-thiazolidinone] showed a response vs control in vivo at 10 mg/kg (blood glucose level [1]; [6]) of 94 ± 4%, a response vs control in vivo at 25 mg/kg (blood glucose level [1]; [6]) of 81 ± 8% and a response vs control in vivo at 50 mg/kg (blood glucose level [1]; [6]) of 78 ± 4%. For the same molecule, the response vs control in vivo at 10 mg/kg (blood glucose level [1]; [7]) was 97 ± 4%, the response vs control in vivo at 25 mg/kg (blood glucose level [1]; [7]) was 75 ± 3% and the response vs control in vivo at 50 mg/kg (blood glucose level [1]; [7]) was 72 ± 3%. The “ability to lower blood glucose levels in mammals” value (blood glucose level [1]) was “surprising ability to lower blood glucose levels in mammals”, the response vs control in vivo at 150 mg/kg (blood glucose level [2]; [8]) was 79% and the response vs control in vivo at 150 mg/kg (blood glucose level [2]; [9]) was 65%. The “Percent of Initial Blood Glucose Level After 3 hrs.” value (blood glucose level [5]; 50 mg/kg) was 79%, the “Percent of Initial Blood Glucose Level After 5 hrs.” value (blood glucose level [5]; 50 mg/kg) was 66% and the IC50 (Human liver cathepsin D) was 12.3 µM. For the same molecule, the inhibition at 4.15 µg/mL (stock) (Human liver cathepsin D) was 73% and the “ability to inhibit cathepsin D” value (Human liver cathepsin D; compared to structurally similar compounds known in the art, in words) was “surprising ability to inhibit cathepsin D levels”.
